# Assay results as given in patent US10202652B2, “Methods and compositions of predicting activity of retinoid X receptor modulator” (Denovo Biopharma (Hangzhou) Ltd. Co., priority 2011, dated 2019).
# Key:
# [1] = tested on: non small cell lung cancer; conditions: addition of bexarotene to chemotherapy, first-line, advanced non small cell lung cancer, both phase III trials; cited from earlier work
# [2] = tested on: non small cell lung cancer; assay: Kaplan-Meier survival analysis of bexarotene-treated patients in the SPIRIT I and II phase III trials; format: in vivo, human (patients); conditions: bexarotene plus chemotherapy, control arm 284 days
# Experimental: Bexarotene (also called Targretin, LGD1069) is a selective modulator of retinoid X receptors (RXRs) approved for treating refractory advanced-stage cutaneous T-cell lymphoma (1, 2). […] Consequently, two large phase III trials (SPIRIT I and SPIRIT II) were conducted to evaluate the efficacy and safety of standard chemotherapy agents with or without bexarotene as a first-line therapy in treating advanced non small cell lung cancer. […] A known side-effect of retinoid therapy is the elevation of serum lipids, and the majority of the bexarotene treated patients in the two SPIRIT trials developed hypertriglyceridemia, as expected. […] This intriguing correlation between survival and triglyceride level induced by bexarotene observed in both SPIRIT trials is illustrated in FIG. 1A. […] These findings prompted the search for biomarkers which can predict bexarotene sensitivity and identify a subgroup of non small cell lung cancer patients whose survival could be prolonged by bexarotene treatment.
# FIG. 1. Sub-population analysis and study design. […] Kaplan-Meier survival estimates in patients gave median survivals of 170 days, 263 days, and 371 days for these three groups, respectively. […] B. Overview of genome-wide association study design. In Stage I discovery phase, 150 samples (74 cases and 76 controls) were genotyped using the Affymetrix GeneChip 500K Mapping Array Set (Nsp array+Sty array) containing 500,000 SNPs following the Affymetrix standard protocol. 255 SNPs were then selected for stage II study. In Stage II, 400 samples were individually genotyped using the 255 Sequenom iPLEX SNP assays, including 147 samples (minus one case and two controls) used in the Stage I for the Verification group and 253 new samples for the Replication group. In the Replication group, 129 samples were included from the patients with middle level of triglyceride percentile (HTG Mid).
# LCP1 = assay: RNA microarray of LCP1 expression in paclitaxel-resistant MDA-MB-231 (MDA-PR) cells; format: cell-based, human; conditions: for effect on LCP1 expression (in words): paclitaxel alone, or bexarotene together with paclitaxel
# Experimental: (§1) The human breast cancer cell line MDA-MB-231 was obtained from the American Type Culture Collection (Manassas, Va., USA), and MDA-MB-231 cells were routinely cultured in RPMI-1640 supplemented with 10% fetal bovine serum and 2 mM glutamine in 5% CO2. Bexarotene was synthesized at Ligand Pharmaceuticals Inc. (San Diego, Calif., USA), and paclitaxel was purchased from Sigma Chemicals (St. Louis, Mo., USA). The protocol for establishment of paclitaxel-resistant MDA-MB-231 cells and resensitization to paclitaxel by bexarotene treatment was described previously (5). Briefly, MDA-MB-231 cells were exposed to regimens on a 10-day cycle: a 3-day treatment with 30 nM paclitaxel followed by a 7-day exposure to control medium. […] These MDA-PR cells were then treated with the combination of 30 nM paclitaxel (3 days on and 7 days off) in the absence or presence of 1 μM Targretin (10 days on) in a new 10-day cycle for 3 months.
# MDA-PR cells = assay: Growth and resensitization of paclitaxel-resistant MDA-MB-231 cells; format: cell-based, human; conditions: 30 nM paclitaxel (3 days on, 7 days off) in absence or presence of 1 μM Targretin (10 days on), 3 months
# Experimental: as §1
# [3] = bexarotene-treated patients, two SPIRIT trials; cited from earlier work
SMILES,overall survival in the intent-to-treat population [1],median survival (Kaplan-Meier estimate) ([2]; 'HTG Hi' group: 67% to maximum triglyceride),median survival (Kaplan-Meier estimate) ([2]; 'HTG Lo' group: triglyceride up to 33% of maximum level),median survival (Kaplan-Meier estimate) ([2]; 'HTG Mid' group: middle third (33% to 67%)),"LCP1 expression up-regulation compared to MDA-PR cells (LCP1; 30 nM paclitaxel/1 μM bexarotene for 3 months, p-value=6.86×10^−6)",effect on LCP1 expression (in words) (LCP1),effect on growth / paclitaxel sensitivity of MDA-PR cells (MDA-PR cells),patients who developed NCI grade 3 or higher hypertriglyceridemia [3]
C=C(c1ccc(C(=O)O)cc1)c1cc2c(cc1C)C(C)(C)CCC2(C)C [bexarotene],did not improve overall survival,371 days,170 days,263 days,3.8 fold,significantly up-regulated,re-sensitized to paclitaxel,30-40%
CC(=O)O[C@H]1C(=O)[C@@]2(C)[C@H]([C@H](OC(=O)c3ccccc3)[C@]3(O)C[C@H](OC(=O)[C@H](O)[C@@H](NC(=O)c4ccccc4)c4ccccc4)C(C)=C1C3(C)C)[C@]1(OC(C)=O)CO[C@@H]1C[C@@H]2O [paclitaxel],,,,,,no effect,no effect,
